Here are results for 3 compounds from paper doi:10.1101/2020.05.21.106633v1 (bioRxiv, 2020).

One experiment deals with GBM-6 neurospheres. Description: Collagen cell invasion assay. To be noted: BTP-7 50 µM, n = 3. Type of experiment: cell-based, human.
In experiment [1] the target is T1, recombinant dg-Bcan protein (deglycosylated recombinant human brevican) (Homo sapiens, UniProt Q96GW7).
T1 sequence (Q96GW7 23-911): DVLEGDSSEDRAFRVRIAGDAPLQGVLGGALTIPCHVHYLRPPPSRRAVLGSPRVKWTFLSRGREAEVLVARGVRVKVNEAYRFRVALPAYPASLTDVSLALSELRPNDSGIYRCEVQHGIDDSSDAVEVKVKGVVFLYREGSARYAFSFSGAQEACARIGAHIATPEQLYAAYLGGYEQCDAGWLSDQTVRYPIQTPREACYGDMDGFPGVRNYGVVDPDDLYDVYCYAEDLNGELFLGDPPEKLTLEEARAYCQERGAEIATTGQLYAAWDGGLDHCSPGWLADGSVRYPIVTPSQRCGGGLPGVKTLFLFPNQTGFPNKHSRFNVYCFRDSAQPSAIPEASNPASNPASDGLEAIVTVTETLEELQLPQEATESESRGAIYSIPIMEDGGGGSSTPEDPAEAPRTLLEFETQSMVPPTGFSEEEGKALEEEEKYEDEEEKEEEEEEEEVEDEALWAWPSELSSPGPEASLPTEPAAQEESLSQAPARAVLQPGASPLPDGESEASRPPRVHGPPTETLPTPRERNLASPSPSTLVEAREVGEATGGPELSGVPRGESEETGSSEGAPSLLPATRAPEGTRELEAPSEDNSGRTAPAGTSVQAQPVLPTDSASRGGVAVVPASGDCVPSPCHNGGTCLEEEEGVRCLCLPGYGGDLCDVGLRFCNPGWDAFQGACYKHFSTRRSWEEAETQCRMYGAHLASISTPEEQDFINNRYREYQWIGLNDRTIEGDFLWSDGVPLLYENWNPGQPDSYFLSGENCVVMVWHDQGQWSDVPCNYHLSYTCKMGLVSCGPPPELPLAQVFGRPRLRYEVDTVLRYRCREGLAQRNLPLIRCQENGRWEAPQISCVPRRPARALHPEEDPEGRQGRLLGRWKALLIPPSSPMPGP
Briefly: Octet binding kinetic analysis. To be noted: for Rmax (maximal response in response unit): Octet steady state analysis, one site specific binding fit. (In general: In BLI a coated tip is dipped into the sample, and binding shifts an interference pattern.)

Another experiment relates to GBM-6 cells. Description: CellTitre-Glo cell viability assay, GBM-6. It is filed as cell-based, human. The note with it: BTP-7 50 µM, 48 hrs, nwell = 3.

Non-standard residues stand in square brackets, D forms with d. Residues, ends and D or L forms follow the SMILES beside them. *: point of attachment. FITC = O=C1OC2(c3ccc(O)cc3Oc3cc(O)ccc32)c2ccc(NC(=S)*)cc21; Ahx = NCCCCCC(=O)O

Consider `CC(C)[C@@H](NC(=O)[C@@H](Cc1c[nH]cn1)NC(=O)CNC(=O)[C@@H](Cc1c[nH]c2ccccc12)NC(=O)[C@@H](CCCCN)NC(=O)[C@H](N)[C@H](C)O)C(=O)N[C@H](CC(N)=O)C(=O)N[C@H](CCCCN)C(N)=O` [BTP-7], for which the “effect on GBM-6 invasion in collagen” value in the experiment on GBM-6 neurospheres is “not affected”. Besides, the “Rmax (maximal response in response unit)” value in experiment [1] is given as 0.307. The “effect on GBM-6 proliferation” value in the experiment on GBM-6 cells is recorded as “not affected”.
In the case of `CC[C@@H](C)[C@@H](NC(=O)[C@@H](C)NC(=O)[C@@H](CCCNC(=N)N)NC(=O)[C@@H](CCC(N)=O)NC(=O)[C@@H](CCCNC(=N)N)NC(=O)[C@@H](CCCNC(=N)N)NC(=O)[C@@H](CC(=O)O)NC(=O)[C@@H](C)N)C(N)=O` [BTP-9] (H-[dA][dD][dR][dR][dQ][dR][dA][dI]-NH2; N-terminus and C-terminus assumed), the “Rmax (maximal response in response unit)” value in experiment [1] is 0.338.
With `CC(C)[C@@H](NC(=O)[C@@H](Cc1c[nH]cn1)NC(=O)CNC(=O)[C@@H](Cc1c[nH]c2ccccc12)NC(=O)[C@@H](CCCCN)NC(=O)[C@H](N)[C@H](C)O)C(=O)N[C@H](CC(N)=O)C(=O)N[C@H](CCCCN)C(=O)NCCCCCC(=O)N[C@@H](CCCCNC(=S)Nc1ccc2c(c1)C(=O)OC21c2ccc(O)cc2Oc2cc(O)ccc21)C(N)=O` [Fluorescein-conjugated BTP-7] (H-[dT][dK][dW]G[dH][dV][dN][dK][Ahx]K(FITC)-NH2), the Kd in experiment [1] turned out to be 3.8 µM.

By Kd is commonly meant the free concentration of one partner at which half of the binding sites on the other are occupied at equilibrium, for simple one-to-one binding.
